Values after ≈ are worked out from the molar mass of the structure shown.
Assays:
Assay type in all cases: physicochemical
[1] = Solubility in toluene (Compound Properties, Table 1); conditions: organic solvent or mixture
[2] = Solubility in anisole (footnotes of Table 1); conditions: organic solvent or mixture
[3] = Solubility as observed during work-up of the synthesis; conditions: for solubility of the isolated solid (in words): in toluene and dichloromethane (DCM)
Experimental: To 2.0 g of dichlorobathophenanthroline (5 mM) from Example 1 was added 3.0 g (11 mM) boronic acid. To this was added 0.15 g Pd2 DBA3 (0.15 mM), 0.1 g tricyclohexylphosphine (0.35 mM) and 3.75 g potassium phosphate (17 mM), and all were dissolved into 30 mL dioxane and 15 mL water. This was mixed and heated in a glove box at 100° C. for 1 hr, then warmed gently (minimum rheostat setting) under nitrogen overnight. On reaching about 80° C. the mixture was a tan brown slurry which slowly became clear brown with a dense precipitate. As the solution refluxed (air condensor) a white powdery precipitate formed. The mixture was cooled and removed from the glove box. The dioxane was removed by evaporation and additional water added. A light brown gummy solid was isolated by filtration and washed with water. […] The product was Compound 4.
Take 2.0 g of dichloro-phen (8 mM) in glove box and add 4.7 g (17 mM) boronic acid. Add 0.15 g Pd2 DBA3 (0.15 mM), 0.1 g tricyclohexylphosphine (0.35 mM) and 3.75 g potassium phosphate (17 mM) and dissolve all into 30 mL dioxane and 15 mL water. Mix and heat in glove box in mantle at 100 C for 1 hr then warm gently (minimum rheostat setting) under nitrogen overnight. Solution immediately is dark purple but on reaching ˜80 C it is a tan brown slurry which slowly becomes clear brown. As the solution refluxes (air condensor) it remains clear brown. Cool and work up by removing from glove box and evaporate out the dioxane then add more water. Filter off light brown gummy solid and wash with water. […] The structure was confirmed by NMR analysis to be Compound 14:
Take 2.5 g of dichloro-phen (10 mM) in glove box and add 8.0 g (22 mM) boronic ester. Add 0.30 g Pd2 DBA3 (0.30 mM), 0.2 g tricylcohexylphosphine (0.70 mM) and 7.5 g potassium phosphate (34 mM) and dissolve all into 60 mL dioxane and 30 mL water. Mix and heat in glove box in mantle at 100 C for 1 hr then warm gently (minimum rheostat setting) under nitrogen overnight. Solution immediately is dark purple but on reaching ˜80 C it is a tan brown slurry which slowly becomes clear brown. […]

Row | SMILES | solubility [1] [µg/mL] | other results
1 | c1ccc(-c2cc(-c3c4ccccc4c(-c4ccc(-c5cccc6ccccc56)cc4)c4ccccc34)nc3c2ccc2c(-c4ccccc4)cc(-c4c5ccccc5c(-c5ccc(-c6cccc7ccccc67)cc5)c5ccccc45)nc23)cc1 [Compound 11] | 10100 (≈ 9.27 mM) | 
2 | c1ccc(-c2cc(-c3ccc(N(c4ccccc4)c4ccccc4)cc3)c3ccc4c(-c5ccc(N(c6ccccc6)c6ccccc6)cc5)cc(-c5ccccc5)nc4c3n2)cc1 [Compound 2] | 7600 (≈ 9.28 mM) | 
3 | c1ccc(-c2ccccc2-c2cc(-c3ccccc3)c3ccc4c(-c5ccccc5)cc(-c5ccccc5-c5ccccc5)nc4c3n2)cc1 [Compound 9] | 25600 (≈ 40.2 mM) | 
4 | c1ccc(-c2cc(-c3ccccc3)c3ccc4c(-c5ccccc5)cc(-c5cccc6ccccc56)nc4c3n2)cc1 [Compound 17] | 4200 (≈ 7.86 mM) | 
5 | c1ccc(-c2cccc(-c3cc(-c4ccccc4)c4ccc5c(-c6ccccc6)cc(-c6cccc(-c7ccccc7)c6)nc5c4n3)c2)cc1 [Compound 16] | 800 (≈ 1.26 mM) | solubility [2]: 5000 µg/mL (≈ 7.85 mM)
6 | c1cc(-c2ccnc3c2ccc2c(-c4cccc(-n5c6ccccc6c6ccccc65)c4)ccnc23)cc(-n2c3ccccc3c3ccccc32)c1 [Compound 15] | 20000 (≈ 30.2 mM) | solubility of the product (in words) ([3]; solvent not stated, observed at chromatography/crystallisation): extremely soluble
7 | c1ccc(N(c2ccccc2)c2ccc(-c3ccnc4c3ccc3c(-c5ccc(N(c6ccccc6)c6ccccc6)cc5)ccnc34)cc2)cc1 [Compound 14, 4,7-bis(4-diphenylaminophenyl)-1,10-phenanthroline] |  | solubility of the isolated solid (in words) [3]: dissolves well
8 | c1ccc(-c2cc(-c3ccccc3)c3ccc4c(-c5ccccc5)cc(-c5ccc6ccccc6c5)nc4c3n2)cc1 [Compound 18] | 2300 (≈ 4.3 mM) | 
9 | c1ccc(-c2cc(-c3ccc(-c4ccc5ccccc5c4)cc3)nc3c2ccc2c(-c4ccccc4)cc(-c4ccc(-c5ccc6ccccc6c5)cc4)nc23)cc1 [Compound 13] | 2000 (≈ 2.71 mM) | 
10 | c1ccc(-c2cc(-c3ccc(-c4cccc5ccccc45)cc3)nc3c2ccc2c(-c4ccccc4)cc(-c4ccc(-c5cccc6ccccc56)cc4)nc23)cc1 [Compound 3] | 4500 (≈ 6.11 mM) | 
11 | Fc1ccccc1-c1cc(-c2ccccc2)c2ccc3c(-c4ccccc4)cc(-c4ccccc4F)nc3c2n1 [Compound 10] | 22200 (≈ 42.6 mM) | 
12 | c1ccc(N(c2ccccc2)c2cccc(-c3ccnc4c3ccc3c(-c5cccc(N(c6ccccc6)c6ccccc6)c5)ccnc34)c2)cc1 [Compound 20] | 32200 (≈ 48.3 mM) | 
13 | c1ccc(-c2ccc3c(c2)c2cc(-c4ccccc4)ccc2n3-c2cccc(-c3cc(-c4ccccc4)c4ccc5c(-c6ccccc6)cc(-c6cccc(-n7c8ccc(-c9ccccc9)cc8c8cc(-c9ccccc9)ccc87)c6)nc5c4n3)c2)cc1 [Compound 12] | 22800 (≈ 20.4 mM) | 
14 | c1ccc(-c2cc(-c3cccc(-n4c5ccccc5c5ccccc54)c3)nc3c2ccc2c(-c4ccccc4)cc(-c4cccc(-n5c6ccccc6c6ccccc65)c4)nc23)cc1 [Compound 1] | 4800 (≈ 5.89 mM) | 
15 | c1ccc(-c2cc(-c3ccc(N(c4ccccc4)c4ccccc4)cc3)nc3c2ccc2c(-c4ccccc4)cc(-c4ccc(N(c5ccccc5)c5ccccc5)cc4)nc23)cc1 [Compound 4] | 31300 (≈ 38.2 mM) | solubility of the isolated solid (in words) [3]: dissolved well
16 | c1ccc(-c2cc(-c3ccc4ccccc4c3)nc3c2ccc2c(-c4ccccc4)cc(-c4ccc5ccccc5c4)nc23)cc1 [Compound 21] | 1000 (≈ 1.71 mM) | solubility [2]: 3000 µg/mL (≈ 5.13 mM)

From patent US8309731B2, “Electronic device including phenanthroline derivative” (E I du Pont de Nemours and Company, priority 2011, dated 2012)
